From ChEMBL document CHEMBL1201862, “PubChem BioAssay data set” (2004) come the findings set out here.

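Method: 48-hour compound exposure of cells in 96-well plates, five concentrations, linear interpolation of endpoints. Abbreviation: GI50, concentration required for 50% inhibition of growth.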 Active and inactive are the calls of the source. Cut-off read from the data, not from the text of the source: active = GI50 up to about 1.1 µM and inactive = higher. Where only a bound is given, the exact number is not on record here.

Test systems include U-251; KM12; BT-549; NCI/ADR-RES; SF-268; 786-0; LOX IMVI; COLO 205; M14; OVCAR-8; T47D; EKVX; HT-29; HCC 2998; NCI-H226; HOP-92; SK-MEL-2; MOLT-4; SK-MEL-28.
What all share (assay): NCI tumour cell line growth inhibition, 48 h

On to `C=C(CCC(C)C1CCC2C3=C(C(=O)CC21C)C1(C)CCC(=O)[C@@H](C)C1CC3=O)C(C)C(=O)O` (stereo not given in full), for which the GI50 with U-251 is 56.5 µM (inactive); with KM12, 85.5 µM (inactive); with BT-549, 47.3 µM (inactive); in the experiment on NCI/ADR-RES it was > 100 µM (inactive); in the experiment with SF-268 it was > 100 µM (inactive); in the experiment on 786-0, 18.3 µM (inactive). Moreover, the GI50 in the experiment on LOX IMVI is 17.4 µM (inactive); with COLO 205, 45.1 µM (inactive); in the experiment with M14, > 100 µM (inactive); in the experiment on OVCAR-8 it was 61 µM (inactive); in the experiment with T47D, 30.7 µM (inactive); in the experiment on EKVX, 78.7 µM (inactive). Further, the GI50 in the experiment on HT-29 is 87.7 µM (inactive); in the experiment with HCC 2998, 98.2 µM (inactive); in the experiment on NCI-H226, > 100 µM (inactive); in the experiment with HOP-92, 30.8 µM (inactive); in the experiment on SK-MEL-2 it was > 100 µM (inactive); with MOLT-4, 40.2 µM (inactive). Further, in the experiment on SK-MEL-28, the GI50 was > 100 µM (inactive).

For `COC(=O)C1=NN2c3ccccc3CN([C@@H](C)c3ccccc3)C(=O)[C@@H]2[C@H]1c1ccccc1`, the GI50 with U-251 is > 100 µM (inactive); in the experiment on KM12 it was > 100 µM (inactive); with BT-549 it was > 100 µM (inactive); in the experiment with NCI/ADR-RES it was 32.1 µM (inactive); with SF-268 it was > 100 µM (inactive); in the experiment with 786-0, > 100 µM (inactive). Moreover, the GI50 in the experiment on LOX IMVI was > 100 µM (inactive); in the experiment with COLO 205 it was > 100 µM (inactive); in the experiment on M14, > 100 µM (inactive); in the experiment on OVCAR-8, > 100 µM (inactive); with T47D it was 9.75 µM (inactive); in the experiment on EKVX, > 100 µM (inactive). The GI50 with HT-29 is > 100 µM (inactive); in the experiment on HCC 2998 it was > 100 µM (inactive); in the experiment with NCI-H226 it was > 100 µM (inactive); in the experiment on HOP-92, > 100 µM (inactive); with SK-MEL-2, > 100 µM (inactive); with MOLT-4, 5.66 µM (inactive). In addition, the GI50 in the experiment on SK-MEL-28 was > 100 µM (inactive).

With `CNC1C(O)C(NC)C2OC3(O)C(=O)CC(C)OC3OC2C1O` (stereo not given), the GI50 in the experiment with U-251, with KM12, in the experiment with BT-549, with NCI/ADR-RES, in the experiment with SF-268 and in the experiment with 786-0 was > 100 µM (inactive) throughout. The GI50 in the experiment with LOX IMVI, in the experiment with COLO 205, in the experiment with M14, in the experiment on OVCAR-8, with T47D and in the experiment on EKVX was > 100 µM (inactive) each time. The GI50 in the experiment on HT-29, in the experiment with HCC 2998, with NCI-H226, in the experiment on HOP-92, in the experiment with SK-MEL-2 and in the experiment on MOLT-4 was > 100 µM (inactive) throughout. In addition, in the experiment on SK-MEL-28, the GI50 is > 100 µM (inactive).

For the molecule `CC(C)NC(=O)OCc1c(COC(=O)NC(C)C)c(-c2ccc[n+](COC(=O)C(C)C)c2)n2c1CCC2`, the GI50 in the experiment on U-251 was > 75.5 µM (inactive); with KM12, > 100 µM (inactive); with BT-549, 81.1 µM (inactive); in the experiment on NCI/ADR-RES it was 63.7 µM (inactive); with SF-268 it was 52.4 µM (inactive); in the experiment with 786-0, 34.6 µM (inactive). The GI50 in the experiment with LOX IMVI was 37.7 µM (inactive); in the experiment on COLO 205 it was > 72.3 µM (inactive); in the experiment with M14, 61.5 µM (inactive); with OVCAR-8, > 72.8 µM (inactive); in the experiment on T47D, > 81.3 µM (inactive); with EKVX it was > 100 µM (inactive). The GI50 was 73.8 µM (inactive) in the experiment on HT-29; > 100 µM (inactive) with HCC 2998; > 100 µM (inactive) with NCI-H226; 44.1 µM (inactive) in the experiment on HOP-92; > 83.4 µM (inactive) in the experiment with SK-MEL-2; 13.6 µM (inactive) in the experiment with MOLT-4. The GI50 with SK-MEL-28 was > 100 µM (inactive).

With `OC1(c2ccccc2)CCN(Cc2c[nH]c3ccccc23)CC1`, the GI50 was 64.4 µM (inactive) in the experiment on U-251; 75.3 µM (inactive) in the experiment with KM12; > 100 µM (inactive) in the experiment on BT-549; > 100 µM (inactive) in the experiment with NCI/ADR-RES; > 100 µM (inactive) in the experiment with SF-268; 44 µM (inactive) with 786-0. The GI50 was 76.4 µM (inactive) in the experiment with LOX IMVI; 17.5 µM (inactive) in the experiment on COLO 205; 17.5 µM (inactive) in the experiment with M14; > 100 µM (inactive) in the experiment on OVCAR-8; 35.6 µM (inactive) in the experiment with T47D; > 100 µM (inactive) with EKVX. Also, the GI50 with HT-29 is 42.9 µM (inactive); in the experiment with HCC 2998, 17.8 µM (inactive); with NCI-H226, > 100 µM (inactive); in the experiment with HOP-92, > 100 µM (inactive); in the experiment on SK-MEL-2 it was 18 µM (inactive); in the experiment with MOLT-4, 39.2 µM (inactive). For the same molecule, the GI50 with SK-MEL-28 is 20.7 µM (inactive).

On to `CC(=O)C1=C(C)N2C(=NC3=C(CCc4ccccc43)C2c2ccc(Cl)cc2)S1` (stereo not given), for which the GI50 in the experiment on U-251 is > 67.5 µM (inactive); in the experiment with KM12, 33.3 µM (inactive); with BT-549 it was > 100 µM (inactive); in the experiment with NCI/ADR-RES it was > 73.8 µM (inactive); in the experiment with SF-268, > 87.9 µM (inactive); with 786-0, > 52.4 µM (inactive). Further, the GI50 in the experiment on LOX IMVI was > 81.1 µM (inactive); with COLO 205, 21.4 µM (inactive); in the experiment with M14 it was > 40.4 µM (inactive); in the experiment on OVCAR-8 it was > 100 µM (inactive); with T47D, 5.53 µM (inactive); with EKVX it was 46.8 µM (inactive). Also, the GI50 is 7.45 µM (inactive) with HT-29; 5.69 µM (inactive) with HCC 2998; > 100 µM (inactive) in the experiment with NCI-H226; 31 µM (inactive) with HOP-92; > 45 µM (inactive) in the experiment with SK-MEL-2; 3.8 µM (inactive) in the experiment with MOLT-4. Further, the GI50 in the experiment on SK-MEL-28 was > 100 µM (inactive).

On to `N#Cc1nc(C#N)c(N)[nH]1`, for which the GI50 in the experiment on U-251, in the experiment on KM12, with BT-549, in the experiment with NCI/ADR-RES, with SF-268 and with 786-0 was > 100 µM (inactive) throughout. Also, the GI50 in the experiment with LOX IMVI, in the experiment on COLO 205, in the experiment on M14, with OVCAR-8, in the experiment on T47D and with EKVX was > 100 µM (inactive) each time. Further, the GI50 with HT-29, in the experiment on HCC 2998, with NCI-H226, in the experiment on HOP-92, with SK-MEL-2 and in the experiment on MOLT-4 was > 100 µM (inactive) each time. Besides, the GI50 with SK-MEL-28 is > 100 µM (inactive).

For the molecule `CCCCCCCCCCCCCCCCP(=O)(O)OP(=O)(O)OCC1OC(n2cnc3c(N)ncnc32)C(O)C1O` (stereo not given), the GI50 is 20 µM (inactive) with U-251; 26.1 µM (inactive) in the experiment on KM12; 42.4 µM (inactive) in the experiment with BT-549; 31.1 µM (inactive) with NCI/ADR-RES; 30.3 µM (inactive) with SF-268; 22.8 µM (inactive) in the experiment on 786-0. The GI50 in the experiment with LOX IMVI was 27.4 µM (inactive); in the experiment with COLO 205, 32.7 µM (inactive); in the experiment on M14, 27.5 µM (inactive); in the experiment on OVCAR-8, 22 µM (inactive); with T47D, 82.6 µM (inactive); in the experiment on EKVX, 92 µM (inactive). Also, the GI50 in the experiment on HT-29 is 20.3 µM (inactive); in the experiment on HCC 2998 it was 22.5 µM (inactive); in the experiment with NCI-H226 it was 20.9 µM (inactive); in the experiment with HOP-92, 21.4 µM (inactive); with SK-MEL-2, 42.5 µM (inactive); in the experiment on MOLT-4 it was 17.3 µM (inactive). Besides, the GI50 in the experiment with SK-MEL-28 is 35.7 µM (inactive).

On to `CN(C)CCn1c(=O)c2ccc(NCCNCCO)c3c(=O)c4cc(O)ccc4n(c1=O)c23`, for which the GI50 in the experiment on U-251 was 0.931 µM (active); in the experiment with KM12, 3.57 µM (inactive); in the experiment with BT-549, 10.9 µM (inactive); in the experiment with NCI/ADR-RES, 17.1 µM (inactive); in the experiment on SF-268, 0.393 µM (active); with 786-0, 0.617 µM (active). Also, the GI50 was 0.91 µM (active) in the experiment on LOX IMVI; 0.634 µM (active) with COLO 205; 2.69 µM (inactive) with M14; 1.12 µM (inactive) in the experiment with OVCAR-8; 2.31 µM (inactive) in the experiment on T47D; 2.58 µM (inactive) with EKVX. For the same molecule, the GI50 was 0.665 µM (active) with HT-29; 0.661 µM (active) in the experiment with HCC 2998; 0.839 µM (active) in the experiment on NCI-H226; 0.61 µM (active) with HOP-92; 1.9 µM (inactive) with SK-MEL-2; 0.229 µM (active) in the experiment on MOLT-4. Further, in the experiment on SK-MEL-28, the GI50 was 4.43 µM (inactive).

On to `COc1cccc2c1cc([N+](=O)[O-])c1c(C(=O)O)cc3c(c12)OCO3` [ARISTOLOCHIC ACID], for which the GI50 is 36.9 µM (inactive) with U-251; 27.3 µM (inactive) with KM12; 39.4 µM (inactive) in the experiment on BT-549; 38.1 µM (inactive) in the experiment on NCI/ADR-RES; 33.8 µM (inactive) in the experiment with SF-268; 37.2 µM (inactive) in the experiment on 786-0. The GI50 in the experiment on LOX IMVI was 35.5 µM (inactive); with COLO 205, 1.31 µM (inactive); in the experiment with M14 it was 43.9 µM (inactive); in the experiment with OVCAR-8 it was 28.7 µM (inactive); in the experiment with T47D, 50.1 µM (inactive); in the experiment on EKVX it was 43.4 µM (inactive). For the same molecule, the GI50 in the experiment with HT-29 was 0.889 µM (active); in the experiment with HCC 2998 it was 2.8 µM (inactive); in the experiment on NCI-H226 it was 33.7 µM (inactive); in the experiment on HOP-92 it was > 78 µM (inactive); with SK-MEL-2, 57.8 µM (inactive); in the experiment on MOLT-4 it was 26.7 µM (inactive). In addition, the GI50 in the experiment on SK-MEL-28 was 41.9 µM (inactive).
